Reference: patent publication US5616615A, “Enaminone esters” (priority 1995, dated 1997)
Where two headings read alike, the source gives them in different places.

Key:
pentylenetetrazol = test: Phase V quantification against pentylenetetrazol; type: in vivo; settings: dose not given
Description: (§1) Both 12 and 27 were evaluated in Phase V of the ADD Program evaluation scheme. Phase V provides quantification against bicuculline, picrotoxin, pentylenetetrazol, and strychnine. This screen provides information on the mechanism of action of the anticonvulsant activity. Bicuculline, picrotoxin, and strychnine correspond to GABA inhibitory function, chloride channel inhibition and inhibition by glycine respectively.

[1] = system: bicuculline, picrotoxin, pentylenetetrazol, and strychnine; settings: in vivo
Description: as §1

[2] = system: Amygdala Kindled Seizures; test: Suppression of amygdala kindled seizures; type: in vivo
Description: Compounds 12 and 27 were evaluated in our laboratory for suppression of amygdala kindled seizures.

[3] = system: Subcutaneous Pentylenetetrazol seizure; test: sc Met subcutaneous pentylenetetrazol (Metrazol) seizure test, mice; type: in vivo; settings: Mus musculus, sc, read-out: scMet, animals protected/tested (converted)
[4] = system: Maximal electroshock seizures; test: MES maximal electroshock seizure test, mice ip; type: in vivo; parameters: TPE (time of peak effect), activity: unit not given here; settings: ip; for responders at 100 mg/kg: read-out: MES, animals protected/tested (converted); for responders at 300 mg/kg: read-out: MES, animals protected/tested
Description: Three tests were performed:
1. MES--Electroshock Seizure Test
(§2) Maximal electroshock seizures are elicited with a 60-cycle alternating current of 50 mA intensity (5-7 times that necessary to elicit minimal electroshock seizures) delivered via corneal electrodes for 0.2 seconds. A drop of 0.9% saline is instilled in the eye prior to application of the electrodes in order to […].

in vivo [5] = settings: mouse, in vivo, ip
Kinetic hydrolysis = type: physicochemical; settings: for average absorbance value: over incubation periods
Description: This solution was 4.0×10^-5 M. Phosphate buffer, pH 7.4 and water were used in this study. All experiments were performed in triplicate. A volume of the stock ethanol solution of 1 (0.2 mL), was diluted with the appropriate solvent to make 1 mL of solution. Each mixture was sealed in a Teflon capped reaction vial and incubated at 37° C. for the same time periods as indicated in the ip rat toxicity study (Tables X and X-A). After each time period, the vials were removed from the incubator and quenched at -80° C. until ready for analysis. Initial scan (t=O h) indicated a λ max at 311 nm for 27. […] After all samples were incubated, the UV spectra was taken from 190-500 nm using the respective solvent as a blank. The results were plotted in terms of absorbance v, time of incubation and the absorbance values.

picrotoxin = test: Phase V quantification against picrotoxin; type: in vivo; settings: dose not given
Description: as §1

GABA receptor = GABA receptor binding test
in vivo [6] = settings: rat, po
Excerpt: (§3) This oral screen is designated as phase VI.

benzodiazepine receptor = benzodiazepine receptor binding evaluation
[7] = system: Maximal electroshock seizures; test: Phase VI oral MES test, rats; type: in vivo; settings: oral; for responders at 6 mg/kg / responders at 10 mg/kg: Rattus norvegicus, read-out: MES, animals protected/tested (converted)
Excerpt: as §2, §3

Neurotoxicity, rats ip = settings: 100 mg/kg
Description: The rotorod test is used to elevate neurotoxicity. The animal is placed on a 1 inch diameter knurled plastic rod rotating at 6 rpm. […] Neurologic toxicity is defined as the failure of the animal to remain on the rod for 1 minute and the results are expressed as the number of animals protected/the number of animals tested.
The toxicity evaluation for the commercial agents as previously indicated was based on the onset of ataxia.

bicuculline = test: Phase V quantification against bicuculline; type: in vivo; settings: dose not given
Description: as §1

Corneal Kindled rats = test: Corneal kindling; type: in vivo; settings: for Ave. seizure score: ranking 0-5; for ED50: Rattus norvegicus
Description: Corneal kindling studies were performed in our laboratories on 12 and 27 and the results are shown in Tables XI and XII and FIGS. 1A and 1B. Comparative data for the commercial products are included. Seizures evoked in electroshock-kindled rats provide a suitable model consistent with complex partial seizures evolving into generalized motor seizures in humans.
^a Rats kindled to Stage 5. Endpoint was reduction from Stage 5 to […]

adenosine uptake = adenosine uptake assay
strychnine = test: Phase V quantification against strychnine; type: in vivo; settings: dose not given
Description: as §1

seizures = test: Anticonvulsant evaluation (ASP phase I / overall); type: in vivo, mice
In short: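 Male Carworth Farms #1 mice; maximal electroshock seizures elicited by 60-cycle AC, 50 mA, 0.2 s via corneal electrodes after a drop of 0.9% saline in the eye. Animals observed for 30 minutes.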

With `COC(=O)C1C(=O)C=C(Nc2ccc(Cl)cc2)CC1C` (centres unmarked) [Compound 27] the “protection against pentylenetetrazol” value (pentylenetetrazol) was “uniformly inactive”, the “threshold to chemostimulants” value [1] was “did not lower the threshold to these chemostimulants” and the “Afterdischarge Amygdala: Duration” value ([2]; 350 mg/kg) was 79.8 s. The “Afterdischarge Cortex: Duration” value ([2]; 350 mg/kg) was 79.6 s, the “Afterdischarge Cortex: Latency” value ([2]; 350 mg/kg) was 2.7 s and the “Behavioral Seizure: Duration” value ([2]; 350 mg/kg) was 82.3 s. The “Behavioral Seizure: Latency” value ([2]; 350 mg/kg) was 2.1 s, the “Forelimb Clonus: Duration” value ([2]; 350 mg/kg) was 45.3 s and the “Forelimb Clonus: Latency” value ([2]; 350 mg/kg) was 9.2 s. The “Seizure Stage” value ([2]; 350 mg/kg) was 5.0, the “suppression of amygdala kindled seizures” value ([2]; in vivo) was “no significant activity” and the responders at 100 mg/kg ([3]; 0.5 h, 30 min) was 0%. The responders at 300 mg/kg ([3]; 0.5 h, 30 min) was 0%, the responders at 100 mg/kg ([3]; 4 h, 4 h) was 0% and the responders at 300 mg/kg ([3]; 4 h, 4 h) was 0%. It also gave a responders at 100 mg/kg ([4]; Mus musculus, 0.5 h, 30 min) of 100%, a responders at 300 mg/kg ([4]; Mus musculus, 0.5 h, 30 min) of 100% and a responders at 100 mg/kg ([4]; Mus musculus, 4 h, 4 h) of 0%. The responders at 300 mg/kg ([4]; Mus musculus, 4 h, 4 h) was 100%, the ED50 ([4]; Mus musculus, Phase II, time of peak effect) was 26.2 mg/kg and the “TPE (time of peak effect), activity” value ([4]; Phase II) was 0.5. The TD50 (in vivo [5]) was 255 mg/kg, the “TPE (time of peak effect), toxicity” value (in vivo [5]) was 2 and the selectivity ratio (in vivo [5]) was 9.72. For the same compound, the average absorbance value (Kinetic hydrolysis; aqueous media, 37° C.) was 0.929 (range 0.789-1.069), the average absorbance value (Kinetic hydrolysis; pH 7.4 buffer, 37° C.) was 1.112 (range 0.983-1.240) and the “change of wavelength (λ max) on incubation” value (Kinetic hydrolysis; water and pH 7.4 buffer, 37° C.) was “the wavelength did not change from 311 nm”. The “significance of absorbance differences” value (Kinetic hydrolysis; water vs pH 7.4 buffer) was “not significant”, the “protection against picrotoxin” value (picrotoxin) was “uniformly inactive” and the “GABA receptor binding” value (GABA receptor) was “inactive”. For the same compound, the TD50 (in vivo [6]) was over 380 mg/kg, the selectivity ratio (in vivo [6]) was 65.6 and the “Tox, animals toxic/tested” value (in vivo [6]; 6 mg/kg) was 0/4. The “Tox, animals toxic/tested” value (in vivo [6]; 10 mg/kg) was 0/4, the “benzodiazepine receptor binding” value (benzodiazepine receptor) was “inactive” and the ED50 ([7]; Phase VI, rat) was 5.79 mg/kg. The responders at 6 mg/kg ([7]; 0.5 h, 0.50 h) was 75%, the responders at 10 mg/kg ([7]; 0.5 h, 0.50 h) was 100% and the responders at 6 mg/kg ([7]; 1.00 h) was 50%. The responders at 6 mg/kg ([7]; 2.00 h) was 25%, the responders at 10 mg/kg ([7]; 0.25 h) was 75% and the responders at 10 mg/kg ([7]; 1.00 h) was 100%. For the same compound, the responders at 10 mg/kg ([7]; 2.00 h) was 100%, the responders at 10 mg/kg ([7]; 4.00 h) was 75% and the animals displaying neurotoxicity/tested (Neurotoxicity, rats ip; 0.25 h (Table X-A)) was 0/8. For the same compound, the animals displaying neurotoxicity/tested (Neurotoxicity, rats ip; 0.50 h (Table X-A)) was 3/8, the animals displaying neurotoxicity/tested (Neurotoxicity, rats ip; 1.00 h (Table X-A)) was 6/8 and the animals displaying neurotoxicity/tested (Neurotoxicity, rats ip; 2.00 h (Table X-A)) was 7/8. The animals displaying neurotoxicity/tested (Neurotoxicity, rats ip; 4.00 h (Table X-A)) was 2/8, the animals displaying neurotoxicity/tested (Neurotoxicity, rats ip; 6.00 h (Table X-A)) was 1/8 and the animals displaying neurotoxicity/tested (Neurotoxicity, rats ip; 8.00 h (Table X-A)) was 0/8. For the same compound, the animals displaying neurotoxicity/tested (Neurotoxicity, rats ip; 24.00 h (Table X-A)) was 2/8, the “protection against bicuculline” value (bicuculline) was “uniformly inactive” and the “% Reduction” value (Corneal Kindled rats; 20 mg/kg) was 40%. The Ave. seizure score (Corneal Kindled rats; 20 mg/kg) was 3.0, the “% Reduction” value (Corneal Kindled rats; 30 mg/kg) was 40% and the Ave. seizure score (Corneal Kindled rats; 30 mg/kg) was 3.0. For the same compound, the “% Reduction” value (Corneal Kindled rats; 40 mg/kg) was 49%, the Ave. seizure score (Corneal Kindled rats; 40 mg/kg) was 2.6 and the “% Reduction” value (Corneal Kindled rats; 50 mg/kg) was 87%. The Ave. seizure score (Corneal Kindled rats; 50 mg/kg) was 1.7, the ED50 (Corneal Kindled rats; po, 0.5 h, read-out: ED50 (reduction from Stage 5 to Stage 4)) was 31.2 mg/kg and the ED50 (Corneal Kindled rats; read-out: ED50, corneal kindling) was 31.2 mg/kg. The “adenosine uptake” value (adenosine uptake) was “inactive”, the “protection against strychnine” value (strychnine) was “uniformly inactive” and the “activity compared with benzylamine counterpart” value (seizures; 27 vs 16, 28 vs 17, 29 vs 20) was “activity is enhanced in all cases”. For the same compound, the minimal effective dose (seizures; Mus musculus, ip, Phase I, read-out: ASP Classification) was under 100 mg/kg and the “anticonvulsant activity” value (seizures; mouse, in vivo) was “anticonvulsant activity was observed”.
